system: DLD-1 BRCA2(−/−) Cell; experiment: Cell viability assay (Resazurin) in DLD1-BRCA2 cells; assay type: cell-based; details: Homo sapiens, DLD-1, 336 h, 14 days, 1,500 cells/well, final DMSO 1%
Summary of the method: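 DLD1-BRCA2 KG cells seeded at 1,500/well (parental 600/well) in RPMI-1640 with 10% FBS, compound added after 4 h (1% DMSO), media replaced every 3-4 days over 14 days at 37° C. Viability read by resazurin (0.1 mg/ml, 4 h) fluorescence at Ex/Em 560/590 nm; IC50 fitted.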

| IC50 [nM] | Compound |
| --- | --- |
| < 1000 | Cc1cc(C(F)(F)F)cc(N2[C@H](C(=O)N(CC#Cc3cc(N4CCOCC4)ncn3)c3ccc(F)c(C)c3)CCS2(=O)=O)n1 [Example 75, (S)-N-(4-fluoro-3-methylphenyl)-2-(6-methyl-4-(trifluoromethyl)pyridin-2-yl)-N-(3-(6-morpholinopyrimidin-4-yl)prop-2-yn-1-yl)isothiazolidine-3-carboxamide 1,1-dioxide] |
| < 1000 | Cc1cc(C(F)(F)F)cc(N2[C@H](C(=O)N(CC#Cc3cnc(N4CCOCC4)nc3)c3ccc(F)c(C)c3)CCS2(=O)=O)n1 [Example 77, (S)-N-(4-fluoro-3-methylphenyl)-2-(6-methyl-4-(trifluoromethyl)pyridin-2-yl)-N-(3-(2-morpholinopyrimidin-5-yl)prop-2-yn-1-yl)isothiazolidine-3-carboxamide 1,1-dioxide] |
| < 1000 | Cc1cc(C(F)(F)F)cc(N2[C@H](C(=O)N(CC#Cc3ncc(N4CCOCC4)cn3)c3ccc(F)c(C)c3)CCS2(=O)=O)n1 [Example 79, (S)-N-(4-fluoro-3-methylphenyl)-2-(6-methyl-4-(trifluoromethyl)pyridin-2-yl)-N-(3-(5-morpholinopyrimidin-2-yl)prop-2-yn-1-yl)isothiazolidine-3-carboxamide 1,1-dioxide] |
| < 1000 | Cc1cc(C(F)(F)F)cc(N2[C@H](C(=O)N(CC#Cc3nccc(N4CCOCC4)n3)c3ccc(F)c(C)c3)CCS2(=O)=O)n1 [Example 80, (S)-N-(4-fluoro-3-methylphenyl)-2-(6-methyl-4-(trifluoromethyl)pyridin-2-yl)-N-(3-(4-morpholinopyrimidin-2-yl)prop-2-yn-1-yl)isothiazolidine-3-carboxamide 1,1-dioxide] |
| < 1000 | Cc1cc(C(F)(F)F)cc(N2[C@H](C(=O)N(CC#Cc3ncc(C(N)=O)cn3)c3ccc(F)c(C)c3)CCS2(=O)=O)n1 [Example 81, (S)-N-(3-(5-carbamoylpyrimidin-2-yl)prop-2-yn-1-yl)-N-(4-fluoro-3-methylphenyl)-2-(6-methyl-4-(trifluoromethyl)pyridin-2-yl)isothiazolidine-3-carboxamide 1,1-dioxide] |
| < 1000 | Cc1cc(C(F)(F)F)cc(N2[C@H](C(=O)N(CC#Cc3ncc(C(=O)N4CCOCC4)cn3)c3ccc(F)c(C)c3)CCS2(=O)=O)n1 [Example 82, (S)-N-(4-fluoro-3-methylphenyl)-2-(6-methyl-4-(trifluoromethyl)pyridin-2-yl)-N-(3-(5-(morpholine-4-carbonyl)pyrimidin-2-yl)prop-2-yn-1-yl)isothiazolidine-3-carboxamide 1,1-dioxide] |
| < 1000 | Cc1cc(C(F)(F)F)cc(N2[C@H](C(=O)N(CC#Cc3ncc(C(=O)N4C5CCC4COC5)cn3)c3ccc(F)c(C)c3)CCS2(=O)=O)n1 [Example 83, (3S)-N-(3-(5-(3-oxa-8-azabicyclo[3.2.1]octane-8-carbonyl)pyrimidin-2-yl)prop-2-yn-1-yl)-N-(4-fluoro-3-methylphenyl)-2-(6-methyl-4-(trifluoromethyl)pyridin-2-yl)isothiazolidine-3-carboxamide 1,1-dioxide] |
| < 1000 | Cc1cc(C(F)(F)F)cc(N2[C@H](C(=O)N(CC#Cc3ccc(N4CCOCC4)cn3)c3ccc(F)c(C)c3)CCS2(=O)=O)n1 [Example 84, (S)-N-(4-fluoro-3-methylphenyl)-2-(6-methyl-4-(trifluoromethyl)pyridin-2-yl)-N-(3-(5-morpholinopyridin-2-yl)prop-2-yn-1-yl)isothiazolidine-3-carboxamide 1,1-dioxide] |
| < 1000 | Cc1cc(C(F)(F)F)cc(N2[C@H](C(=O)N(CC#Cc3ccc(N4CCOCC4)nc3)c3ccc(F)c(C)c3)CCS2(=O)=O)n1 [Example 85, (S)-N-(4-fluoro-3-methylphenyl)-2-(6-methyl-4-(trifluoromethyl)pyridin-2-yl)-N-(3-(6-morpholinopyridin-3-yl)prop-2-yn-1-yl)isothiazolidine-3-carboxamide 1,1-dioxide] |
| < 1000 | Cc1cc(C(F)(F)F)cc(N2[C@H](C(=O)N(CC#Cc3cccc(N4CCOCC4)n3)c3ccc(F)c(C)c3)CCS2(=O)=O)n1 [Example 86, (S)-N-(4-fluoro-3-methylphenyl)-2-(6-methyl-4-(trifluoromethyl)pyridin-2-yl)-N-(3-(6-morpholinopyridin-2-yl)prop-2-yn-1-yl)isothiazolidine-3-carboxamide 1,1-dioxide] |

The remaining lines, values behind:

| Compound | IC50 [nM] |
| --- | --- |
| Cc1cc(C(F)(F)F)cc(N2[C@H](C(=O)N(CC#Cc3cncc(C(=O)N4C[C@H](C)N[C@@H](C)C4)n3)c3ccc(F)c(C)c3)CCS2(=O)=O)n1 [Example 74, (S)-N-(3-(6-((3S,5S)-3,5-dimethylpiperazine-1-carbonyl)pyrazin-2-yl)prop-2-yn-1-yl)-N-(4-fluoro-3-methylphenyl)-2-(6-methyl-4-(trifluoromethyl)pyridin-2-yl)isothiazolidine-3-carboxamide 1,1-dioxide] | < 1000 |
| Cc1cc(C(F)(F)F)cc(N2[C@H](C(=O)N(CC#Cc3cc(N4CCOCC4)nc(C(F)(F)F)n3)c3ccc(F)c(C)c3)CCS2(=O)=O)n1 [Example 76, (S)-N-(4-fluoro-3-methylphenyl)-2-(6-methyl-4-(trifluoromethyl)pyridin-2-yl)-N-(3-(6-morpholino-2-(trifluoromethyl)pyrimidin-4-yl)prop-2-yn-1-yl)isothiazolidine-3-carboxamide 1,1-dioxide] | < 1000 |
| Cc1cc(C(F)(F)F)cc(N2[C@H](C(=O)N(CC#Cc3cnc(C(N)=O)nc3)c3ccc(F)c(C)c3)CCS2(=O)=O)n1 [Example 78, (S)-N-(3-(2-carbamoylpyrimidin-5-yl)prop-2-yn-1-yl)-N-(4-fluoro-3-methylphenyl)-2-(6-methyl-4-(trifluoromethyl)pyridin-2-yl)isothiazolidine-3-carboxamide 1,1-dioxide] | < 1000 |
| Cc1cc(C(F)(F)F)cc(N2[C@H](C(=O)N(CC#Cc3cccc(=O)[nH]3)c3ccc(F)c(C)c3)CCS2(=O)=O)n1 [Example 87, (S)-N-(4-fluoro-3-methylphenyl)-2-(6-methyl-4-(trifluoromethyl)pyridin-2-yl)-N-(3-(6-oxo-1,6-dihydropyridin-2-yl)prop-2-yn-1-yl)isothiazolidine-3-carboxamide 1,1-dioxide] | < 1000 |
| Cc1cc(C(F)(F)F)cc(N2[C@H](C(=O)N(CC#Cc3cccc(OC(C)C)n3)c3ccc(F)c(C)c3)CCS2(=O)=O)n1 [Example 88, (S)-N-(4-fluoro-3-methylphenyl)-N-(3-(6-isopropoxypyridin-2-yl)prop-2-yn-1-yl)-2-(6-methyl-4-(trifluoromethyl)pyridin-2-yl)isothiazolidine-3-carboxamide 1,1-dioxide] | 1100 to 5000 |
| Cc1cc(C(F)(F)F)cc(N2[C@H](C(=O)N(CC#Cc3cccc(OC(F)F)n3)c3ccc(F)c(C)c3)CCS2(=O)=O)n1 [Example 89, (S)-N-(3-(6-(difluoromethoxy)pyridin-2-yl)prop-2-yn-1-yl)-N-(4-fluoro-3-methylphenyl)-2-(6-methyl-4-(trifluoromethyl)pyridin-2-yl)isothiazolidine-3-carboxamide 1,1-dioxide] | 1100 to 5000 |
| Cc1cc(C(F)(F)F)cc(N2[C@H](C(=O)N(CC#Cc3cc(C)c(F)c(C)n3)c3ccc(F)c(C)c3)CCS2(=O)=O)n1 [Example 90, (S)-N-(4-fluoro-3-methylphenyl)-N-(3-(5-fluoro-4,6-dimethylpyridin-2-yl)prop-2-yn-1-yl)-2-(6-methyl-4-(trifluoromethyl)pyridin-2-yl)isothiazolidine-3-carboxamide 1,1-dioxide] | 1100 to 5000 |
| Cc1cc(C(F)(F)F)cc(N2[C@H](C(=O)N(CC#Cc3cc(C)c(N)c(C)n3)c3ccc(F)c(C)c3)CCS2(=O)=O)n1 [Example 91, (S)-N-(3-(5-amino-4,6-dimethylpyridin-2-yl)prop-2-yn-1-yl)-N-(4-fluoro-3-methylphenyl)-2-(6-methyl-4-(trifluoromethyl)pyridin-2-yl)isothiazolidine-3-carboxamide 1,1-dioxide] | 1100 to 5000 |
| Cc1cc(C(F)(F)F)cc(N2[C@H](C(=O)N(CC#Cc3cccc(=O)n3C)c3ccc(F)c(C)c3)CCS2(=O)=O)n1 [Example 92, (S)-N-(4-fluoro-3-methylphenyl)-2-(6-methyl-4-(trifluoromethyl)pyridin-2-yl)-N-(3-(1-methyl-6-oxo-1,6-dihydropyridin-2-yl)prop-2-yn-1-yl)isothiazolidine-3-carboxamide 1,1-dioxide] | < 1000 |
| Cc1cc(C(F)(F)F)cc(N2[C@H](C(=O)N(CC#Cc3ccc(F)cn3)c3ccc(F)c(C)c3)CCS2(=O)=O)n1 [Example 93, (S)-N-(4-fluoro-3-methylphenyl)-N-(3-(5-fluoropyridin-2-yl)prop-2-yn-1-yl)-2-(6-methyl-4-(trifluoromethyl)pyridin-2-yl)isothiazolidine-3-carboxamide 1,1-dioxide] | < 1000 |
| Cc1cc(C(F)(F)F)cc(N2[C@H](C(=O)N(CC#Cc3ccc(F)c(C(C)C)n3)c3ccc(F)c(C)c3)CCS2(=O)=O)n1 [Example 94, (S)-N-(4-fluoro-3-methylphenyl)-N-(3-(5-fluoro-6-isopropylpyridin-2-yl)prop-2-yn-1-yl)-2-(6-methyl-4-(trifluoromethyl)pyridin-2-yl)isothiazolidine-3-carboxamide 1,1-dioxide] | 1100 to 5000 |
| Cc1cc(C(F)(F)F)cc(N2[C@H](C(=O)N(CC#Cc3ccc(C(N)=O)nc3)c3ccc(F)c(C)c3)CCS2(=O)=O)n1 [Example 95, (S)-N-(3-(6-carbamoylpyridin-3-yl)prop-2-yn-1-yl)-N-(4-fluoro-3-methylphenyl)-2-(6-methyl-4-(trifluoromethyl)pyridin-2-yl)isothiazolidine-3-carboxamide 1,1-dioxide] | < 1000 |
| Cc1cc(C(F)(F)F)cc(N2[C@H](C(=O)N(CC#Cc3cnc(C(N)=O)c(F)c3)c3ccc(F)c(C)c3)CCS2(=O)=O)n1 [Example 96, (S)-N-(3-(6-carbamoyl-5-fluoropyridin-3-yl)prop-2-yn-1-yl)-N-(4-fluoro-3-methylphenyl)-2-(6-methyl-4-(trifluoromethyl)pyridin-2-yl)isothiazolidine-3-carboxamide 1,1-dioxide] | < 1000 |

— patent US20260297083A1, “SUBSTITUTED ACETYLENE COMPOUND DERIVATIVES AND THEIR PHARMACEUTICAL USE” (AVELOS THERAPEUTICS INC., priority 2023, published 2026)
